Test results reported in patent US12528837B2, “Aryl substituted polymyxin derivatives” (priority 2018, dated 2026).
Converted amounts (≈) assume the structure as drawn. Where two headings read alike, the source gives them in different places. Marks after values point to notes of the source that are not given here. *1 amine or outer side, *2 acyl side, *3 side chain or, on linkers, in order; H or OH if unused. Where a SMILES comes first, the peptide text is derived from it. Bridges are numbered along the chain shown (N, C = ends). [ ]: non-standard residue; d: D form. The star is where a group is joined. GABA(3R-Bn) = O=C(C[C@H](CN[*:1])Cc1ccccc1)[*:2]; X17 = CC(C)C[C@@H]1CNC[C@@H](C(=O)*)C1; X1 = NC[C@@H](CC(=O)*)c1cccc(Cl)c1; Dab = NCC[C@H](N)C(=O)O; Dap = NC[C@H](N)C(=O)O

Key:
HK-2 cells = test: In vitro renal cell toxicity assay (HK-2); type: cell-based
Procedure, shortened: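 HK-2 cells seeded 7,500/well, adhered overnight, then exposed to compound for 24 h at 37° C, 5% CO2, with 5% water and 0.5% DMSO. Background-subtracted, vehicle-normalised dose-response fitted with bottom fixed at zero; IC50 reported relative to PMB in the same run, median where repeated.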

E. coli IHMA 940398 = type: cell-based; details: IHMA 940398
Method: (§1) MIC values (μg/mL) were determined by broth microdilution under CLSI conditions.

E. coli CDF-1 (MCR-1) = type: cell-based; details: CDF-1 (MCR-1)
Method: as §1

[1] = test system: P. aeruginosa IHMA 644636; type: cell-based; details: IHMA 644636
Method: as §1

[2] = test system: P. aeruginosa IHMA 517175; type: cell-based; details: IHMA 517175
Method: as §1

A. baumannii IHMA 517303 = type: cell-based; details: IHMA 517303
Method: as §1

P. aeruginosa ATCC 27853 [3] = type: cell-based; details: ATCC 27853
Method: as §1

[4] = test system: A. baumannii IHMA 851735 (OXA-23); type: cell-based; details: IHMA 851735 (OXA-23)
Method: as §1

[5] = test system: K. pneumoniae IHMA 520329 (SHV-12, KPC-2); type: cell-based; details: IHMA 520329 (SHV-12, KPC-2)
Method: as §1

[6] = test system: K. pneumoniae IHMA 580884; type: cell-based; details: IHMA 580884
Method: as §1

[7] = test system: A. baumannii NCTC 13301 (OXA-23); type: cell-based; details: NCTC 13301
Method: as §1

[8] = Renal toxicity in mice, 25 mg/kg sc four doses at 8 hr intervals, biomarkers and histopathology; type: in vivo, mouse; details: sc 25 mg free base/kg; for Kidney histopathology: signs of degeneration or regeneration: mice (n=6)
Method: After the fourth dose animals were transferred into individual metabolic cages and urine collected for 24 hours for determination of urinary biomarkers. After collecting urine mice were euthanised and the kidneys harvested for histopathology.

E. coli CA58 = type: cell-based
Procedure, shortened: (§2)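 MIC (μg/mL), duplicate runs; median value where a compound was tested repeatedly. Inoculum: colonies from 18-24 h Mueller-Hinton agar, suspended directly to 0.5 McFarland.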

K. pneumoniae CA64 = type: cell-based
Procedure, shortened: as §2

P. aeruginosa CCUG 59347 = type: cell-based
Procedure, shortened: as §2

[9] = Kidney drug level after subcutaneous dose in mouse; type: in vivo; details: for Drug Level in Kidney 4 h / Drug Level in Kidney 16 h: sc, 17.2 mg/kg; for 4 hr kidney level/rel. cytotoxicity: ratio of 4 h kidney level to HK-2 IC50 relative to PMB
Procedure, shortened: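 Mice were euthanised four hours after subcutaneous dosing. Both kidneys were trimmed, weighed, snap-frozen, then homogenised with zirconium oxide beads. After centrifugation (13,000 rpm, 6 °C, 10 min), supernatants were analysed by LC-MS-MS.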

P. aeruginosa ATCC 27853 [10] = type: cell-based; details: ATCC 27853; remark: listed apart in the source
Method: (§3) The inoculum was prepared by making a direct suspension of isolated colonies (selected from an 18-24 hour Mueller-Hinton agar plate) adjusted to the 0.5 McFarland standard. […] The assays were performed in duplicate. […] The MIC values are quoted in μg/mL.

A. baumannii NCTC 13424 = type: cell-based; details: NCTC 13424
Method: as §3

[11] = Renal toxicity in Cynomolgus monkey, iv infusion 7 days; type: in vivo; details: Cynomolgus monkey (n=3), 20 mg/kg/dose, 3 times per day, 7 days
Method: In a separate experiment male monkeys (n=3) were dosed with PMB for the same period at 4 mg/kg/dose. In both experiments control animals were dosed 3 times per day with saline.
At the end of the 7 day period blood was sampled and the serum levels of blood urea nitrogen and creatinine determined as indicators of renal damage.
Kidneys were harvested at the end of the 7 day dosing period and examined microscopically.

[12] = Renal toxicity in mice, 17.2 mg/kg sc three times per day, urinary biomarkers; type: in vivo, mouse
Method: Starting immediately after the first dose on day 4, mice were transferred to individual metabolic cages and urine was collected over the following 24 hours for determination of biomarker levels (albumin, cystatin C, KIM-1).
PMB values show the range from 4 experiments and colistin from 2 experiments.
Elevation of albumin, cystatin C or KIM-1 in the urine are signs of renal damage.

K. pneumoniae ATCC 13822 = type: cell-based; details: cation-adjusted Mueller-Hinton Broth, 18-20 h, 35° C.
Method: as §3

E. coli ATCC 25922 = type: cell-based; details: cation-adjusted Mueller-Hinton Broth, 18-20 h, 35° C.
Method: as §3

[13] = test system: A. baumannii ATCC BAA-747; type: cell-based; details: cation-adjusted Mueller-Hinton Broth, 18-20 h, 35° C.
Method: as §3

[14] = Renal toxicity grading by urinary biomarkers (Table A); type: in vivo, mouse; design: key: −: indistinguishable to vehicle control; ++++: strong response from all biomarkers; details: 4 doses 8 h apart at 25 mg free base/kg/dose or 4 days at 17.2 mg free base/kg/dose; urine 16-24 h
[15] = cation-adjusted Mueller-Hinton Broth, 18-20 h, 35° C.
[16] = mice, sc three times per day 17.2 mg free base/kg, urine 24 h from day 4, geometric mean

In the case of `CC(C)C[C@@H]1NC(=O)[C@@H](Cc2ccccc2)NC(=O)[C@H](CCN)NC(=O)[C@@H](NC(=O)[C@H](CN)NC(=O)[C@@H](NC(=O)C[C@H](CN)c2cccc(Cl)c2)[C@@H](C)O)CCNC(=O)[C@H]([C@@H](C)O)NC(=O)[C@H](CCN)NC(=O)[C@H](CCN)NC1=O` [Example 5, (S)-4-amino-3-(3- chlorophenyl)butanoyl- Thr-Dap-Cyclo[Dab- Dab-DPhe-Leu-Dab- Dab-Thr]] (X1-T[Dap][Dab][Dab][dF]L[Dab][Dab]T; lactam 3-C), the “HK-2 rel to PMB” value (HK-2 cells) is reported as 11.6, the “MIC E. coli IHMA 940398” value (E. coli IHMA 940398) is reported as 32 µg/mL (≈ 28 µM) and the “MIC E. coli CDF-1” value (E. coli CDF-1 (MCR-1)) is reported as 8 µg/mL (≈ 6.99 µM). The “MIC P. aeruginosa IHMA 644636” value [1] was 32 µg/mL (≈ 28 µM), the “MIC P. aeruginosa IHMA 517175” value [2] was 8 µg/mL (≈ 6.99 µM) and the “MIC A. baumannii IHMA 517303” value (A. baumannii IHMA 517303) was greater than 64 µg/mL. The “MIC P. aeruginosa ATCC 27853” value (P. aeruginosa ATCC 27853 [3]) was 0.25 µg/mL (≈ 0.218 µM), the “MIC A. baumannii IHMA 851735” value [4] was 0.25 µg/mL (≈ 0.218 µM) and the “MIC K. pneumoniae IHMA 520329” value [5] was greater than 64 µg/mL. The “MIC K. pneumoniae IHMA 580884” value [6] was 16 µg/mL (≈ 14 µM), the “MIC A. baumannii NCTC 13301” value [7] was 0.06 µg/mL (≈ 0.0524 µM) and the “Kidney histopathology: signs of degeneration or regeneration” value [8] was “None of the animals”. For the same compound, the “MIC E. coli CA58” value (E. coli CA58; CA58) was 8 µg/mL (≈ 6.99 µM), the “MIC K. pneumoniae CA64” value (K. pneumoniae CA64; CA64) was 16 µg/mL (≈ 14 µM) and the “MIC P. aeruginosa CCUG 59347” value (P. aeruginosa CCUG 59347; CCUG 59347) was 0.25 µg/mL (≈ 0.218 µM). The “Drug Level in Kidney (μg/g kidney, 4 h)” value ([9]; mouse, 17.2 mg/kg sc, 4 h) was 170 μg/g kidney, the Drug Level in Kidney 4 h ([9]; mouse, in vivo) was 170 µg/g kidney and the Drug Level in Kidney 16 h ([9]; mouse, in vivo) was 19 µg/g kidney. For the same compound, the “4 hr kidney level/rel. cytotoxicity” value [9] was 15, the “MIC P. aeruginosa ATCC 27853” value (P. aeruginosa ATCC 27853 [10]) was 0.25 µg/mL (≈ 0.218 µM) and the “MIC A. baumannii NCTC 13424” value (A. baumannii NCTC 13424) was 0.06 µg/mL (≈ 0.0524 µM). For the same compound, the “Kidney microscopy: tubular degeneration” value [11] was 1 showed mild tubular degeneration and 2 showed minimal degeneration and the “Urinary biomarkers of renal toxicity, comparison (in words)” value ([12]; albumin, cystatin C, KIM-1, mice 17.2 mg free base/kg three times per day) was “lowest levels of all 3 biomarkers”.

For `CC(C)C[C@@H]1NC(=O)[C@@H](Cc2ccccc2)NC(=O)[C@H](CCN)NC(=O)[C@@H](NC(=O)[C@H](CN)NC(=O)[C@@H](NC(=O)C[C@H](CN)Cc2ccccc2)[C@@H](C)O)CCNC(=O)[C@H]([C@@H](C)O)NC(=O)[C@H](CCN)NC(=O)[C@H](CCN)NC1=O` [Example 9, (R)-4-amino-3- benzylbutanoyl-Thr- Dap-Cyclo[Dab-Dab- DPhe-Leu-Dab-Dab- Thr). Isomer 1] ({GABA(3R-Bn)}-T[Dap][Dab][Dab][dF]L[Dab][Dab]T; lactam 3-C), the “HK-2 rel to PMB” value (HK-2 cells; IC50 relative to PMB in the same experiment, 24 h) was 12.0, the “Kidney histopathology: signs of degeneration or regeneration” value [8] was “None of the animals” and the “Albumin, urine” value ([8]; mice, urine 24 h) was 749 μg/24 h. For the same compound, the “Cystatin C, urine” value ([8]; mice, urine 24 h) was 754 ng/24 h, the “KIM-1, urine” value ([8]; mice, urine 24 h) was 2 ng/24 h and the “MIC E. coli CA58” value (E. coli CA58; [15]) was 8 µg/mL (≈ 7.12 µM). For the same compound, the “MIC K. pneumoniae CA64” value (K. pneumoniae CA64; [15]) was 64 µg/mL (≈ 56.9 µM), the “MIC P. aeruginosa CCUG 59347” value (P. aeruginosa CCUG 59347; [15]) was 0.5 µg/mL (≈ 0.445 µM) and the “Drug Level in Kidney (μg/g kidney, 4 h)” value ([9]; mouse, 17.2 mg/kg sc, 4 h) was 159 μg/g kidney. For the same compound, the “Drug level in kidney” value ([9]; mouse, 17.2 mg/kg sc, 4 hours) was 159 µg/g, the tissue level at time at 4 h ([9]; mouse, in vivo, mice, 17.2 mg/kg free base sc, 4 h, read-out: 4 hr kidney level) was 159000 ng/g and the “4 hr kidney level/rel. cytotoxicity” value [9] was 13. For the same compound, the “MIC K. pneumoniae ATCC 13822” value (K. pneumoniae ATCC 13822) was 0.25 µg/mL (≈ 0.222 µM), the “MIC E. coli ATCC 25922” value (E. coli ATCC 25922) was 0.25 µg/mL (≈ 0.222 µM) and the “MIC A. baumannii ATCC BAA-747” value [13] was 0.25 µg/mL (≈ 0.222 µM).

With `CC(C)C[C@@H]1CNC[C@@H](C(=O)N[C@H](C(=O)N[C@@H](CN)C(=O)N[C@H]2CCNC(=O)[C@H]([C@@H](C)O)NC(=O)[C@H](CCN)NC(=O)[C@H](CCN)NC(=O)[C@H](CC(C)C)NC(=O)[C@@H](CC(C)C)NC(=O)[C@H](CCN)NC2=O)[C@@H](C)O)C1` [Reference Example D77, reference compound] (X17-T[Dap][Dab][Dab][dL]L[Dab][Dab]T; lactam 3-C) the “Cytotoxicity (measured IC50 relative to that recorded for Polymyxin B)” value (HK-2 cells) was 23**, the “Renal toxicity (grade from urinary KIM-1, albumin, cystatin C)” value [14] was “++++” and the Drug Level in Kidney 4 h ([9]; mouse, in vivo) was 516 µg/g kidney. For the same compound, the Drug Level in Kidney 16 h ([9]; mouse, in vivo) was 264 µg/g kidney.

With Colistin the “Albumin, urine” value [12, 16] was 2,353-2,548 μg/24 h, the “Cystatin C, urine” value [12, 16] was 1,266-1,678 ng/24 h and the “KIM-1, urine” value [12, 16] was 42-89 ng/24 h.
